The record followed here is PubChem BioAssay AID328 (DTP/NCI, 2004).

This assay deals with BDF1 mice, P388 leukemia ip, median survival T/C. Nature of the assay: NCI In Vivo Anticancer Drug Screen. Data for tumor model P388 Leukemia (intraperitoneal) in B6D2F1 (BDF1) mice. The conditions noted are these: endpoint: median survival time, higher = longer survival. The method, boiled down:
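Vehicle-dosed animals serve as the reference; survival of compound-dosed, tumour-implanted mice is divided by it.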

[1] abbreviates: dose: 100.0 mg/kg/injection, schedule: Q04DX003 (ip), vehicle: saline with Tween-80.
The mark [2] stands for this setting: dose: 200.0 mg/kg/injection, schedule: Q04DX003 (ip), vehicle: saline with Tween-80.
Setting [3] is: dose: 400.0 mg/kg/injection, schedule: Q04DX003 (ip), vehicle: saline with Tween-80.
The mark [4] stands for this setting: dose: 12.5 mg/kg/injection, schedule: Q04DX003 (ip), vehicle: saline.
The mark [5] stands for this setting: dose: 50.0 mg/kg/injection, schedule: Q04DX003 (ip), vehicle: saline.
Where [6] appears, read: dose: 100.0 mg/kg/injection, schedule: Q04DX003 (ip), vehicle: saline.
Where [7] appears, read: dose: 12.5 mg/kg/injection, schedule: Q04DX003 (ip), vehicle: water.
Where [8] appears, read: dose: 25.0 mg/kg/injection, schedule: Q04DX003 (ip), vehicle: water.
Where [9] appears, read: dose: 50.0 mg/kg/injection, schedule: Q04DX003 (ip), vehicle: water.
Where [10] appears, read: dose: 50.0 mg/kg/injection, schedule: Q01DX009 (ip), vehicle: saline.
Setting [11] is: dose: 100.0 mg/kg/injection, schedule: Q01DX009 (ip), vehicle: saline.
Setting [12] is: dose: 25.0 mg/kg/injection, schedule: Q01DX009 (ip), vehicle: saline with Tween-80.
Setting [13] is: dose: 100.0 mg/kg/injection, schedule: Q01DX009 (ip), vehicle: saline with Tween-80.
[14] abbreviates: dose: 200.0 mg/kg/injection, schedule: Q01DX009 (ip), vehicle: saline with Tween-80.

Where “and” joins values, the source holds several entries; their conditions need not be identical. Equal entries are not always repeated. Inconclusive results and toxic doses are left out.

On to `CCCCCCCCCC(=O)CCCC`, for which the T/C runs as follows: under setting [1], 100 % of control; under setting [2], 91 % of control; under setting [3], 108 % of control.

Consider `O=C1c2ccccc2C(=O)c2c(O)c(NCCCN3CCOCC3)cc(O)c21`, for which the T/C (dose: 50.0 mg/kg/injection, schedule: Q01DX005 (ip), vehicle: saline with Tween-80) is 99 % of control; the T/C (dose: 100.0 mg/kg/injection, schedule: Q01DX005 (ip), vehicle: saline with Tween-80) is 94 % of control; the T/C (dose: 200.0 mg/kg/injection, schedule: Q01DX005 (ip), vehicle: saline with Tween-80) was 94 % of control.

Take `Nc1nc(=O)n(C2OC(CO)C(O)C2O)c2nc(I)[nH]c12` (centres undefined): the T/C is, setting by setting: under setting [4], 97 % of control; (dose: 25.0 mg/kg/injection, schedule: Q04DX003 (ip), vehicle: saline) 97 % of control; under setting [5], 105 % of control; under setting [6], 108 % of control; (dose: 200.0 mg/kg/injection, schedule: Q04DX003 (ip), vehicle: saline) 111 % of control.

On to `O=C1CN(CCl)C(=O)CN1CCl`, for which the T/C under setting [7] is 100 % of control and 107 % of control; the T/C (dose: 25.0 mg/kg/injection, schedule: Q01DX009 (ip), vehicle: water) was 94 % of control; the T/C under setting [8] is 92 % of control and 103 % of control; the T/C (dose: 50.0 mg/kg/injection, schedule: Q01DX009 (ip), vehicle: water) is 92 % of control; the T/C under setting [9] is 95 % of control and 107 % of control; the T/C (dose: 100.0 mg/kg/injection, schedule: Q01DX009 (ip), vehicle: water) was 100 % of control. Also, the T/C is, setting by setting: (dose: 100.0 mg/kg/injection, schedule: Q04DX003 (ip), vehicle: water) 96 % of control; (dose: 200.0 mg/kg/injection, schedule: Q01DX009 (ip), vehicle: water) 94 % of control.

On to `NC(CCC(=O)NC(CSC(c1ccccc1)(c1ccccc1)c1ccc(F)cc1)C(=O)NCC(=O)O)C(=O)O` (centres undefined), for which the T/C reads like this: (dose: 115.0 mg/kg/injection, schedule: Q04DX003 (ip), vehicle: saline) 118 % of control; (dose: 177.0 mg/kg/injection, schedule: Q04DX003 (ip), vehicle: saline with Tween-80) 118 % of control; (dose: 266.0 mg/kg/injection, schedule: Q04DX003 (ip), vehicle: saline with Tween-80) 159 % of control; (dose: 266.0 mg/kg/injection, schedule: Q04DX003 (ip), vehicle: saline) 181 % of control; under setting [3], 231 % of control.

As to `Cn1cncc1CC(Cl)CO` (centres undefined), the T/C runs as follows: (dose: 25.0 mg/kg/injection, schedule: Q01DX009 (ip), vehicle: saline) 100 % of control; under setting [10], 99 % of control; under setting [11], 103 % of control.

On to `CC(c1ccccc1)[n+]1ccccc1C1OCCO1` (centres undefined), for which the T/C by setting is: (dose: 6.25 mg/kg/injection, schedule: Q04DX003 (ip), vehicle: saline) 100 % of control; under setting [4], 97 % of control.

Take `COC(=O)C[CH2][Pb]([c]1ccccc1)([c]1ccccc1)[c]1ccccc1`: the T/C reads like this: under setting [12], 106 % of control; (dose: 50.0 mg/kg/injection, schedule: Q01DX009 (ip), vehicle: saline with Tween-80) 98 % of control.

For the compound `c1nnc(NCNc2nncs2)s1`, the T/C is 100 % of control (dose: 12.0 mg/kg/injection, schedule: Q04DX003 (ip), vehicle: saline); 204 % of control (dose: 12.5 mg/kg/injection, schedule: Q01DX010 (ip), vehicle: saline); 118 % of control (dose: 19.0 mg/kg/injection, schedule: Q04DX003 (ip), vehicle: saline); 227 % of control (dose: 25.0 mg/kg/injection, schedule: Q01DX010 (ip), vehicle: saline); 186 % of control (dose: 29.0 mg/kg/injection, schedule: Q04DX003 (ip), vehicle: saline); 177 % of control (dose: 45.0 mg/kg/injection, schedule: Q04DX003 (ip), vehicle: saline). In addition, the T/C under setting [10] was 100 % of control; the T/C (dose: 50.0 mg/kg/injection, schedule: Q01DX010 (ip), vehicle: saline) was 90 % of control; the T/C under setting [5] is 190 % of control; the T/C (dose: 66.0 mg/kg/injection, schedule: Q04DX003 (ip), vehicle: saline) is 150 % of control and 195 % of control; the T/C under setting [11] was 100 % of control; the T/C under setting [6] is 227 % of control and 235 % of control and 195 % of control. Besides, the T/C (dose: 150.0 mg/kg/injection, schedule: Q04DX003 (ip), vehicle: saline) is 210 % of control and 213 % of control.

On to `COC(=O)c1cc(C(C)=O)ccc1OC(=O)c1ccccc1`, for which the T/C under setting [13] is 118 % of control; the T/C under setting [1] was 100 % of control; the T/C under setting [14] was 104 % of control; the T/C under setting [2] is 100 % of control; the T/C (dose: 400.0 mg/kg/injection, schedule: Q01DX009 (ip), vehicle: saline with Tween-80) is 104 % of control; the T/C under setting [3] was 100 % of control.

As for `CCN(CC)CCCCCNc1cc(OC)cc2c(C)ccnc12`, the T/C under setting [10] was 115 % of control and the T/C under setting [11] is 92 % of control.

`CC(=O)c1ccc2c(c1)[nH]c1ccccc12`: the T/C was 100 % of control under setting [1], 86 % of control under setting [2] and 95 % of control under setting [3].

Take `O=C(C=C(C(F)(F)F)C(F)(F)F)c1ccc(Cl)cc1`: the T/C (dose: 6.25 mg/kg/injection, schedule: Q01DX009 (ip), vehicle: saline with Tween-80) is 100 % of control; the T/C (dose: 12.5 mg/kg/injection, schedule: Q01DX009 (ip), vehicle: saline with Tween-80) was 100 % of control; the T/C under setting [12] was 118 % of control.

Consider `O=C1C2C(C(=O)N1c1ccc(OCc3ccccc3)cc1)C1c3ccccc3C2C2CCCCN21` (centres undefined), for which the T/C is 93 % of control (dose: 3.13 mg/kg/injection, schedule: Q04DX003 (ip), vehicle: water); 101 % of control (dose: 6.25 mg/kg/injection, schedule: Q04DX003 (ip), vehicle: water); 97 % of control under setting [7]; 101 % of control under setting [8]; 99 % of control under setting [9].

Regarding `COC(=O)C(CSCSC)NC(=O)/C=C/c1ccccc1Cl` (centres undefined), the T/C under setting [1] was 100 % of control; the T/C under setting [2] was 87 % of control and 104 % of control; the T/C under setting [3] was 90 % of control.

As to `COc1cccc2c1C(=O)c1c(O)c3c(c(O)c1C2=O)C[C@@](O)(C(=O)CO)C[C@@H]3OC1CC(NC(=O)C(F)(F)F)C(O)C(C)O1` (some centres undefined), the T/C (dose: 3.13 mg/kg/injection, schedule: Q04DX009 (ip), vehicle: other) was 113 % of control; the T/C (dose: 6.25 mg/kg/injection, schedule: Q04DX009 (ip), vehicle: other) was 121 % of control; the T/C (dose: 12.5 mg/kg/injection, schedule: Q04DX009 (ip), vehicle: other) is 123 % of control.

Regarding `CCOC(=O)C(C)C(=O)Cc1cc(OC)c(C)cc1Br` (centres undefined), the T/C reads like this: (dose: 50.0 mg/kg/injection, schedule: Q04DX003 (ip), vehicle: Klucel (hydroxypropylcellulose) (HPC)) 100 % of control; (dose: 100.0 mg/kg/injection, schedule: Q01DX009 (ip), vehicle: Klucel (hydroxypropylcellulose) (HPC)) 110 % of control; (dose: 100.0 mg/kg/injection, schedule: Q04DX003 (ip), vehicle: Klucel (hydroxypropylcellulose) (HPC)) 91 % of control; (dose: 200.0 mg/kg/injection, schedule: Q01DX009 (ip), vehicle: Klucel (hydroxypropylcellulose) (HPC)) 105 % of control; (dose: 200.0 mg/kg/injection, schedule: Q04DX003 (ip), vehicle: Klucel (hydroxypropylcellulose) (HPC)) 95 % of control; (dose: 400.0 mg/kg/injection, schedule: Q01DX009 (ip), vehicle: Klucel (hydroxypropylcellulose) (HPC)) 100 % of control. Also, the T/C (dose: 400.0 mg/kg/injection, schedule: Q04DX003 (ip), vehicle: Klucel (hydroxypropylcellulose) (HPC)) is 95 % of control.

In the case of `O[C@@H]1CCCC[C@@H]1n1cnc2c(=S)nc[nH]c21`, the T/C was 92 % of control under setting [13]; 100 % of control under setting [1]; 96 % of control under setting [14]; 104 % of control under setting [2]; 100 % of control under setting [3].

With `C=C(C)C12OC3(c4ccccc4)OC1C1C4OC4(CO)C(O)C4(O)C(=O)C(C)=CC4C1(O3)C(C)C2OC(=O)c1ccccc1` (centres undefined), the T/C is 106 % of control (dose: 6.3 micrograms/kg/injection, schedule: Q01DX009 (ip), vehicle: saline + alcohol); 108 % of control (dose: 12.5 micrograms/kg/injection, schedule: Q01DX009 (ip), vehicle: saline + alcohol); 150 % of control (dose: 200.0 micrograms/kg/injection, schedule: Q01DX009 (ip), vehicle: saline + alcohol).
